According to US6433005B1, “Benzofuran and benzothiophene derivatives as anti-inflammatory agents” (Syntex (U.S.A.) LLC, priority 2000, dated 2002):

How the values were obtained:
COX I = biological target: T1, COX I (Homo sapiens, UniProt P23219); assay: Inhibition of COX I in vitro, radiometric assay with partially purified enzyme; assay type: biochemical; conditions: 10 min preincubation, 20 micromolar [14C] arachidonic acid
T1 construct: made in house
Procedure: (§1) The COX I and COX II inhibitory activity of compounds of this invention in vitro was determined using partially purified COX I and COX II enzymes, prepared as described in J. Bamett et al., Biochim. Biophys. Acta, 1209,130-139 (1994).
(§2) COX I and COX II samples were diluted with Tris-HCl buffer (50 mM Tris-HCl, pH 7.9) containing 2 mM EDTA and 10% glycerol and reconstituted by incubating first with 2 mM phenol for 5 minutes and then with 1 micromolar hematin for an additional 5 minutes. 125 μL of the reconstituted COX I or COX II enzyme were preincubated for 10 minutes at room temperature in a shaking water bath with the compounds of the invention dissolved in 2-15 μL of DMSO or the carrier vehicles (control samples). The enzyme reaction was initiated by adding 25 μL of 1-[14 C] arachidonic acid (80,000-100,000 cpm/tube; 20 micromolar final concentration) and the reaction was allowed to continue for an additional 45 seconds. The reaction was terminated by adding 100 μL is of 2N HCl and 750 μL water. An aliquot (950 μL) of the reaction mixture was loaded onto a 1 mL C18 Sep-Pak column (J. T. Baker, Phillipsburg, N.J.) which had been previously washed with 2-3 mL methanol and equilibrated with 5-6 mL distilled water. Oxygenated products were quantitatively eluted with 3 mL of acetonitrile/water/acetic acid (50:50:0.1, v/v) and the radioactivity in the eluate determined in a scintillation counter. Compounds of this invention were active in this assay for COX II.
(§3) The COX inhibitory activities (expressed as IC50, the concentration causing 50% inhibition of the COX enzyme being assayed) of some exemplary compounds of the invention were: […]

COX II = biological target: T2, COX II (Homo sapiens, UniProt P35354); assay: Inhibition of COX II in vitro, radiometric assay with partially purified enzyme; assay type: biochemical; conditions: 10 min preincubation, 20 micromolar [14C] arachidonic acid
T2 construct: made in house
T2 sequence (P35354 18-604): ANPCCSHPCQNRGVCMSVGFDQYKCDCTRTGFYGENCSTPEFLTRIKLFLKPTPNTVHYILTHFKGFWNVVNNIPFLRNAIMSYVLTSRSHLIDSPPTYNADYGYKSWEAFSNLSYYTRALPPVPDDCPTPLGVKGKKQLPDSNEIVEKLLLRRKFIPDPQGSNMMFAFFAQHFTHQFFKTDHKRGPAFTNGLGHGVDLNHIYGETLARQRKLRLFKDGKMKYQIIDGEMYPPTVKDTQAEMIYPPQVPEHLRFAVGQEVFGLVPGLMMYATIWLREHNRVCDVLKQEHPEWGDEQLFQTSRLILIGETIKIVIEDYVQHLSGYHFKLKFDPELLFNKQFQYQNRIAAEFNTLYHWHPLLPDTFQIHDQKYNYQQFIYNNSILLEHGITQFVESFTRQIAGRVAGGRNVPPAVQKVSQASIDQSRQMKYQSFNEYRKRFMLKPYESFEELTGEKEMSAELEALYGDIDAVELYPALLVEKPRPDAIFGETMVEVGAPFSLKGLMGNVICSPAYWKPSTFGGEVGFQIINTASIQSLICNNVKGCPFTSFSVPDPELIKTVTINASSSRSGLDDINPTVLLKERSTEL
Procedure: as §1, §2, §3

T1 sequence (P23219 24-599): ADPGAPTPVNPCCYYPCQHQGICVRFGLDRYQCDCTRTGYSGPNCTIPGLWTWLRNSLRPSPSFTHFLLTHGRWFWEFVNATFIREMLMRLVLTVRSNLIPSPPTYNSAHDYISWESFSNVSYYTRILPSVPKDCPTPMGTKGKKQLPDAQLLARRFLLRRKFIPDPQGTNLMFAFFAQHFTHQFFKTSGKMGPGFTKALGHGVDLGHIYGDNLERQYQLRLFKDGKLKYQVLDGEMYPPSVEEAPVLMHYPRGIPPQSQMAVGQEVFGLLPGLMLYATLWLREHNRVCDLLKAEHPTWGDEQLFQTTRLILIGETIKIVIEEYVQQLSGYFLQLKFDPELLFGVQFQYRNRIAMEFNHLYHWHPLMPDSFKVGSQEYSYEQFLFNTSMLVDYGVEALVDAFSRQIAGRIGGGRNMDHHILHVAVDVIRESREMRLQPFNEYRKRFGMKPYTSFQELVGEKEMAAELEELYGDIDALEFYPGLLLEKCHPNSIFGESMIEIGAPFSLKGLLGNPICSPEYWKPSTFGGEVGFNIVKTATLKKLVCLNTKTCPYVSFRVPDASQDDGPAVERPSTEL

Row | SMILES | IC50 (COX I) [µM] | IC50 (COX II) [µM]
1 | CS(=O)(=O)c1ccc2c(Sc3ccc(F)cc3)c(C#N)sc2c1 [Cpd 26, 3-(4-fluoro-phenylsulfanyl)-6-methanesulfonyl-benzo[b]thiophene-2-carbonitrile] | > 120 | < 1.5
2 | CS(=O)(=O)c1ccc2c(Sc3ccccc3Cl)c(C#N)sc2c1 [Cpd 17, 3-(2-chloro-phenylsulfanyl)-6-methanesulfonyl-benzo[b]thiophene-2-carbonitrile] | > 120 | < 1
3 | CS(=O)(=O)c1ccc2c(Sc3ccc(Cl)cc3Cl)c(C#N)sc2c1 [Cpd 19, 3-(2,4-dichloro-phenylsulfanyl)-6-methanesulfonyl-benzo[b]thiophene-2-carbonitrile] | > 120 | < 1.5

Results, then the compound that gave them:

Row | IC50 (COX I) [µM] | IC50 (COX II) [µM] | SMILES
4 | > 120 | < 1.5 | CCOc1ccc(Oc2c(C#N)sc3cc(S(C)(=O)=O)ccc23)cc1 [Cpd 31, 3-(4-ethoxy-phenoxy)-6-methanesulfonyl-benzo[b]thiophene-2-carbonitrile]
5 | > 120 | < 1.2 | CS(=O)(=O)c1ccc2c(Sc3ccccc3F)c(C#N)sc2c1 [Cpd 30, 3-(2-fluoro-phenylsulfanyl)-6-methanesulfonyl-benzo[b]thiophene-2-carbonitrile]
